pIC50: −log10 of the molar value.
Tested on: SARS-COV-2 Beta variant
Assay: microbe, parasite or virus in culture
Assay type: cell-based, Human coronavirus SARS-COV-2 Beta variant
Settings: for pIC50: Severe acute respiratory syndrome coronavirus 2, Vero C1008

Row | Compound | inhibitory activity against SARS-COV-2 (in words) | pIC50
1 | COc1cccc(Cn2c(NCCO)nc3c2c(=O)n(C)c(=O)n3C)c1 [IMB-C5] | had an inhibitory activity against the SARS-COV-2 Beta variant | 4.46
2 | CCC(CC)COC(=O)[C@H](C)N[P@](=O)(OC[C@H]1O[C@@](C#N)(c2ccc3c(N)ncnn23)[C@H](O)[C@@H]1O)Oc1ccccc1 [Remdesivir, reference compound] |  | 6.14
